Data on ten compounds can be found in patent publication US5534654A, “Aromatic-sulfonamide-type hydroxamic acid derivative” (Shionogi & Co., Ltd., priority 1991, dated 1996).

As usually defined, the IC50 is the concentration needed to halve the response being measured. Low readings indicate greater potency in that assay, high ones weaker potency in that assay.

Structures are written as SMILES.

Format in all cases: cell-based
In experiment [1] the test system is NIH3T3 cells transformed by ras gene. In words: Detransformation of Cells Transformed by Ras Gene. As to conditions: Mus musculus, 24 hours, 2-fold serial dilutions, morphological observation, read-out: MTC: Minimum Concentration Required for the Detransformation of Cells Transformed by Ras Gene. As for the experimental part: Medium used: 9.5 g of Dulbecco's Eagle MEM medium (Nissui Seiyaku) solution, 20 ml of 7% sodium hydrogen carbonate solution are added to distilled water and a fetal bovine serum (Flow Laboratories, Inc.) was added to a final concentration of 10 v/v % to obtain the medium. The medium (100 μl) was added to a 96-well plate (Sumitomo Bakelite) and NIH3T3 cells transformed by ras gene (5×10^3 cells/well) were seeded. The plate was incubated for 24 hr in a 5% carbon dioxide gas incubator. Then a sample to be tested was added in such a manner as to give 2-fold serial dilutions. After 24 hours, cells were observed morphologically to evaluate the detransformation activity.
Minimum Concentration Required for the Detransformation of Cells Transformed by Ras Gene

For experiment [2], the system named is Cell Adhesion of Leukocytes onto Vascular Endothelial Cells of Human Umbilical Vein. In words: Assay of Inhibition Activity Against Cell Adhesion of Leukocytes (HL60 cells) onto Vascular Endothelial Cells of Human Umbilical Vein. The conditions noted are these: 16-hour incubation with sample, then TNF 4 hr, HL-60 cells 30 min, Rose Bengal OD570. As for the experimental part: Assay of Inhibition Activity Against Cell Adhesion of Leukocytes onto Vascular Endothelial Cells of Human Umbilical Vein
Human vascular endothelial cells used had been obtained from human umbilical vein by perfusion method using an enzyme solution of collagenase and have been maintained by subculturing in a culture solution, i.e., M199 medium (Gibco, Inc.) supplemented with 20% fetal bovine serum (FBS; Gibco, Inc.), 100 μg/ml endothelial mitogen (Funakoshi), 90 μg/ml heparin, 50 IU/ml Penicillin and 50 μg/ml Streptomycin. HL60 cells (human myelocytic leukemia cells) were purchased from Flow, Inc. and have been maintained by subculturing in RPMI1640 medium containing 10% FBS.
Four hours later, to each well was added 4 μl of a medium containing a sample at various concentrations. […] After 16-hour-incubation, 4 μl of 1×10^4 μ/ml TNF solution (tumor necrosis factor dissolved in a medium solution) was added and the incubation was continued for 4 hr. The resultant medium solution containing the sample was then filtered with suction and washed (×3) with DMEM solution containing 10% FBS, which was followed by the addition of 200 μl suspension of 3×10^5 HL-60 cells suspended in DMEM containing 10% FBS. The incubation was carried out at 37° C. for 30 min. […] After being allowed to stand for 5 min at room temperature, the supernatant was removed by aspiration, which was followed by washing (×2) with DMEM solution containing 10% FBS. A mixture of ethanol/phosphate-buffered physiological saline (1:1) was added and the resultant mixture was allowed to stand for 30 min to solubilize Rose Bengal pigment, which was followed by the determination of OD570 value on spectrophotometer.

Experiment [3] relates to Vascular Endothelial Cells of Human Umbilical Vein. Put plainly: Assay of Inhibition Against the Cell Growth of Vascular Endothelial Cells of Human Umbilical Vein (MTT method). As to conditions: 72 h, 3-day incubation, OD570. The procedure:
Assay of Inhibition Against the Cell Growth of Vascular Endothelial Cells of Human Umbilical Vein
Human vascular endothelial cells used had been obtained from human umbilical vein by perfusion method using an enzyme solution of collagenase and have been maintained by subculturing in a culture solution, i.e., M199 medium (Gibco, Inc.) supplemented with 20% fetal bovine serum (FBS; Gibco, Inc.), 100 μg/ml endothelial mitogen (Funakoshi), 90 μg/ml heparin, 50 IU/ml Penicillin and 50 μg/ml Streptomycin. […] On the next day, to each well was added 10 μl of a medium containing a sample at various concentrations. […] After 3-day-incubation, to the mixture was added 50 μl of 3 mg/ml MTT solution (a solution of 3-(4,5-dimethyl-2-thiazolyl)-2,5-diphenyl-2H-tetrazolium bromide dissolved in a culture solution) and the incubation was continued for 4 hr. Cells and MTT pigment were solubilized by the addition of 50 μl of 20% SDS solution (sodium dodecylsulfate dissolved in 0.02N HCl) and the incubation continued for 1 hr, which was followed by the determination of OD570 value on spectrophotometer.
Background: Tetrazolium assays rely on reduction of a dye to a coloured formazan, in cell work by metabolically active cells.

As to `O=C(/C=C/C=C/c1ccccc1NS(=O)(=O)c1ccccc1)NO` [Compound I-4, (2E)(4E)-5-(2-Phenylsulfonylaminophenyl)pentadienohydroxamic Acid], the minimal effective concentration in experiment [1] turned out to be 1.6 µM.

With `CN(c1ccccc1/C=C/C=C/C(=O)NO)S(=O)(=O)c1ccccc1` [Compound I-7, (2E)(4E) -5-[2-(N-Methylphenylsulfonylamino)phenyl]-2,4-pentadienohydroxamic Acid], half-maximal inhibition in experiment [2] (IC50) required 4.5 µM. Also, the minimal effective concentration in experiment [1] was 0.2 µM.

For the compound `O=C(/C=C/C=C/C=C/c1ccccc1NS(=O)(=O)c1ccccc1)NO` [Compound I-9, (2E)(4E)(6E)-7-(2-Phenylsulfonylaminophenyl)-heptatrienohydroxamic Acid], the values for the IC50 in experiment [2] and in experiment [3] were 6.5 µM and 25.6 µM, respectively. Further, the minimal effective concentration in experiment [1] stood at 3.2 µM.

For `O=C(/C=C/C=C/c1cccc(NS(=O)(=O)c2ccccc2)c1)NO` [Compound I-10, (2E)(4E)-5-(3-Phenylsulfonylaminophenyl)pentadienohydroxamic Acid], the IC50 amounted to 5.3 µM in experiment [2] and 20.4 µM in experiment [3]. Also, the minimal effective concentration in experiment [1] was determined as 0.3 µM.

On to `CN(c1cccc(/C=C/C=C/C(=O)NO)c1)S(=O)(=O)c1ccccc1` [Compound I-11], for which, in experiment [2], the IC50 is 6.4 µM. For the same compound, in experiment [1], the minimal effective concentration was found to be 0.6 µM.

`O=C(/C=C/C=C/c1ccc(NS(=O)(=O)c2ccccc2)cc1)NO` [Compound I-12, (2E)(4E)-5-(4-Phenylsulfonylaminophenyl)pentadienohydroxamic Acid]: the minimal effective concentration in experiment [1] was 3.1 µM.

In experiment [2], `O=C(/C=C/C=C/c1cc2ccccc2n1S(=O)(=O)c1ccccc1)NO` [Compound I-17, (2E)(4E)-5-(1-phenylsulfonylindol-2-yl)pentadienohydroxamic Acid] came in with an IC50 of 8.3 µM. In experiment [1], the minimal effective concentration was 3.2 µM.

Consider `O=C(/C=C/C#Cc1cccc(NS(=O)(=O)c2ccccc2)c1)NO` [Compound I-18, (2E)-5-[3-(Phenylsulfonylamino)phenyl]pent-2-en-4-ynohydroxamic Acid], for which the IC50 is 2.5 µM in experiment [2] and 13.8 µM in experiment [3]. For the same compound, the minimal effective concentration in experiment [1] was 0.039 µM.

In the case of `CN(c1cccc(C#C/C=C/C(=O)NO)c1)S(=O)(=O)c1ccccc1` [Compound I-19, (2E)-5-[3-(N-Methylphenylsulfonylamino)phenyl]pent-2-en-4-ynohydroxamic Acid], the IC50 is 6.3 µM in experiment [2] and 26.7 µM in experiment [3]. The minimal effective concentration in experiment [1] was 0.3 µM.

As for `O=C(/C=C/C=C/c1cc2ccccc2cc1NS(=O)(=O)c1ccccc1)NO` [Compound I-20, (2E)(4E)-5-(3'-Phenylsulfonylamino-2'-naphthyl)pentadienohydroxamic Acid], the minimal effective concentration in experiment [1] turned out to be 0.6 µM.
